Values of other authors, collected in patent US20030190375A1, “Therapeutical use of sophora flavescens or sophora subprostrata extracts” (priority 2000, published 2003).

Assays:
[1] = system: Ishikawa-Var-I cells; details: Milligan et al 1999
[2] = Huang, The Pharmacology of Chinese Herbs, 1993

In the case of CC(C)=CCc1c(O)cc(O)c2c1O[C@H](c1ccc(O)cc1)CC2=O [8-prenylnaringenine], the “oestrogenic potency in vitro (stimulation of alkaline phosphatase)” value [1] is listed as “significantly more active than the long-familiar phyto-oestrogens such as cumesterol, genistone or daidzin, and produced only a slightly weaker effect than 17β oestradiol”.
For O=C1CCC[C@@H]2[C@H]3CCC[N+]4([O-])CCC[C@@H](CN12)[C@@H]34 (some centres unmarked) [oxymatrine], the “toxic effects in animal studies” value [2] is listed as “toxic effects could be shown”.
